By inhibition is commonly meant the relative decrease from the control value, in per cent.

The target in series [1] is T1, Nuclear receptor ROR-gamma (Mus musculus) (UniProt P51450).
T1 sequence (whole entry): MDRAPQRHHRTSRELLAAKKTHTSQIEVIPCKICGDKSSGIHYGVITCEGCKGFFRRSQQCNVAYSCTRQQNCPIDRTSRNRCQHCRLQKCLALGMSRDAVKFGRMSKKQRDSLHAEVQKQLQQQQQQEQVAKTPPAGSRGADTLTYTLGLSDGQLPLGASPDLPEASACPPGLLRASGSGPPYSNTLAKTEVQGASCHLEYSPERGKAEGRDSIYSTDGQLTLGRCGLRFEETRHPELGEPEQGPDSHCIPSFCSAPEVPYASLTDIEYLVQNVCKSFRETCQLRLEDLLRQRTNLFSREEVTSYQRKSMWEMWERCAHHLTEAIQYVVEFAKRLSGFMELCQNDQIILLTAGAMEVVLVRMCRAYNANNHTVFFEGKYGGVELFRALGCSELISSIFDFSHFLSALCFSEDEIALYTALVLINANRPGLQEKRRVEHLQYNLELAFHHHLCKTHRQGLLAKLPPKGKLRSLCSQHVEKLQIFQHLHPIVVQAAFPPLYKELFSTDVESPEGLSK
In words: Transrepression of RORgammat in Balb/c mouse splenocytes assessed as inhibition of anti-CD3/anti-CD28 stimulated IL-17 gene expression at 0.3 uM measured after 24 hrs in presence of anti-CD3/anti-CD28. The format is cell-based.

Series [2] deals with T1, Nuclear receptor ROR-gamma (Mus musculus). In words: Transrepression of RORgammat in Balb/c mouse splenocytes assessed as inhibition of anti-CD3/anti-CD28 stimulated IL-17 gene expression at 3 uM measured after 24 hrs in presence of anti-CD3/anti-CD28. The series is classed as cell-based.
For series [3] the target is unchanged. Put plainly: Transrepression of RORgammat in Balb/c mouse splenocytes assessed as inhibition of anti-CD3/anti-CD28 stimulated IL-17 gene expression at 30 uM measured after 24 hrs in presence of anti-CD3/anti-CD28. The format is cell-based.
Series [4] is described as follows: Metabolic stability in mouse liver microsomes assessed as parent compound remaining at 1 uM preincubated for 5 mins followed by NADPH addition after 30 mins by LC-MS/MS analysis. The format is ADME, Microsome. The conditions noted are these: read-out: Stability.
Series [5] is described as follows: Metabolic stability in rat liver microsomes assessed as parent compound remaining at 1 uM preincubated for 5 mins followed by NADPH addition after 30 mins by LC-MS/MS analysis. The format is ADME, Microsome. The conditions noted are these: read-out: Stability.
The nature of series [6]: Metabolic stability in human liver microsomes assessed as parent compound remaining at 1 uM preincubated for 5 mins followed by NADPH addition after 30 mins by LC-MS/MS analysis. The series is classed as ADME, Microsome. The conditions noted are these: read-out: Stability. (Microsomes from liver hold many membrane-bound enzymes, among them those of drug oxidation.)

Turning to `O=C(O)c1ccc(-n2cc(C(=O)c3c(Cl)cccc3C(F)(F)F)c3cccc(F)c32)cc1`, the inhibition in series [1] worked out at 18%; in series [2], 46%; in series [3], 55%. Further, the remaining at 0.5 h, 1 µM is 88% in series [4], 100% in series [5] and 88% in series [6].
